Experimental data: patent publication US20230348401A1, “Inhibitors of Glucose-6-phosphate Dehydrogenase and Uses Thereof” (The Trustees of Princeton University, priority 2020, published 2023)
pIC50: −log10 of the molar value.

Molecular target: G6PD (Homo sapiens, UniProt P11413)
Assay: G6PD enzymatic activity by diaphorase-coupled assay
Conditions: not given

Sequence of G6PD (P11413 28-515): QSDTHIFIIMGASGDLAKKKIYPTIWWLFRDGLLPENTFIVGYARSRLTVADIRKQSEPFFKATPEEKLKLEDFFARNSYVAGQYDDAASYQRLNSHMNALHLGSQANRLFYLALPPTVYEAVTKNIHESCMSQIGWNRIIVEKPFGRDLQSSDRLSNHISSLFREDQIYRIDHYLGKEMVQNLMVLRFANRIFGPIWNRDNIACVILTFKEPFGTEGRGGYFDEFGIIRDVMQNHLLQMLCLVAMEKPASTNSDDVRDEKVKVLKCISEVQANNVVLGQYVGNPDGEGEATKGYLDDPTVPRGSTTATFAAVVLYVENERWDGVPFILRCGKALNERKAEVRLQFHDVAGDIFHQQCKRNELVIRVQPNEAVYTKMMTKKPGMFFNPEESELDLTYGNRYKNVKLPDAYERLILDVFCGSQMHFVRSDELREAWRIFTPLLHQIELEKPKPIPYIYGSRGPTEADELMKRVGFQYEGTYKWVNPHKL

pIC50 | Structure (SMILES)
3.00 to 6.00 | O=C1c2cnc(Nc3cccc(Cl)c3)nc2CCCC1O (centres unmarked) [KG-0332-0]
> 6.00 | COCCOc1cc(C#N)cc(Nc2ncc3c(n2)CCCCC3=O)c1 [Compound 0125]
3.00 to 6.00 | N#Cc1cccc(Nc2ncc3c(n2)CCCC(O)C3=O)c1 (centres unmarked) [KG-0331]
< 3.00 | Cc1cccc(Nc2ccc3c(c2)CCNC3=O)c1 [KG-0057]
3.00 to 6.00 | Cc1csc(Nc2ncc3c(n2)CCCC3=O)n1 [KG-0219-0]
> 6.00 | COC1CCc2nc(Nc3csc(C#N)c3)ncc2C1=O (centres unmarked) [KG-0321]
3.00 to 6.00 | CCCCc1cc(C#N)cc(Nc2ncc3c(n2)CCCCC3=O)c1 [Compound 0162]
3.00 to 6.00 | N#Cc1cc(CS(=O)(=O)C(F)(F)F)cc(Nc2ncc3c(n2)CCCCC3=O)c1 [Compound 0163]
3.00 to 6.00 | N#Cc1cc(Nc2ncc3c(n2)CCCCC3C(C#N)C#N)cs1 (centres unmarked) [Compound 0136]
< 3.00 | Cc1cccc(Nc2ccc3c(n2)CCCC3=O)c1 [KG-0052]
> 6.00 | N#Cc1cc(Nc2ncc3c(n2)CCCC(Br)C3=O)cs1 (centres unmarked) [KG-0336-0]
> 6.00 | N#Cc1cc(Nc2ncc3c(n2)CCC(Br)C3=O)cs1 (centres unmarked) [KG-0316]
3.00 to 6.00 | N#Cc1cccc(Nc2ncc3c(n2)CCCS3(=O)=O)c1 [KG-0249-0]
3.00 to 6.00 | N#Cc1cncc(Nc2ncc3c(n2)CCCC3=O)c1 [KG-0198-0]
3.00 to 6.00 | O=C1CCCc2nc(NCc3ccncc3)ncc21 [KG-0163-0]
3.00 to 6.00 | N#Cc1cccc(Nc2ncc3c(n2)COCC3=O)c1 [KG-0190-0]
< 3.00 | O=C1CCCc2nc(Nc3ncco3)ncc21 [KG-0213-0]
3.00 to 6.00 | Cc1cc(Nc2ncc3c(n2)CCCC3=O)no1 [KG-0220-0]

The next lines start with the compound.

Structure (SMILES) | pIC50
N#Cc1cc(Nc2ncc3c(n2)CCCCC3=O)cc(OCc2ccc(OC(F)(F)F)cc2)c1 [Compound 0077] | 3.00 to 6.00
N#Cc1cc(Nc2ncc3c(n2)CCCCC3=O)cc(OC2CCCCC2)c1 [Compound 0063] | > 6.00
N#Cc1cc(Nc2ncc3c(n2)CCCCC3=O)cc(OCc2cccc(CO)c2)c1 [Compound 0083] | > 6.00
N#Cc1cc(Nc2ncc3c(n2)CCCCC3=O)cc(OCc2ccc3ccccc3c2)c1 [Compound 0080] | 3.00 to 6.00
N#Cc1cc(Nc2ncc3c(n2)CCCCC3=O)cc(OCc2cccc3ccccc23)c1 [Compound 0079] | > 6.00
N#Cc1scc(Nc2ncc3c(n2)CCCCC3=O)c1-n1cccc1 [Compound 0071] | > 6.00
N#Cc1cc(Nc2ncc3c(n2)CCCCC3=O)cc(OCc2ccccc2)c1 [Compound 0035] | > 6.00
N#Cc1cc(Nc2ncc3c(n2)CCCCC3=O)cc(OCc2ccc(Cl)cc2)c1 [Compound 0045] | 3.00 to 6.00
N#Cc1cc(Nc2ncc3c(n2)CCCCC3=O)c[nH]1 [Compound 0051] | > 6.00
N#Cc1cc(Nc2ncc3c(n2)CCCCC3=O)cc(OCc2ccsc2)c1 [Compound 0049] | > 6.00
N#Cc1cc(Nc2ncc3c(n2)CCCCC3=O)cc(OCc2ccccc2Cl)c1 [Compound 0047] | > 6.00
N#Cc1cc(Nc2ncc3c(n2)CCCCC3=O)cc(OCCc2ccccc2)c1 [Compound 0103] | > 6.00
N#Cc1cc(Nc2ncc3c(n2)CCCCC3=O)cc(OCc2cccc(Cl)c2)c1 [Compound 0046] | > 6.00
N#Cc1cc(Nc2cc3c(cn2)C(=O)CCCC3)cs1 [Compound 0066] | 3.00 to 6.00
O=C1CCCCc2nc(Nc3ccc(F)c(Cl)c3)ncc21 [Compound 0017] | > 6.00
CC(C)Oc1cc(C#N)cc(Nc2ncc3c(n2)CCCCC3=O)c1 [Compound 0061] | > 6.00
N#Cc1cc(Nc2ncc3c(n2)CCCCC3=O)cc(OCC2CCCCC2)c1 [Compound 0072] | 3.00 to 6.00
O=C1CCCCc2nc(Nc3ccc([N+](=O)[O-])c(Cl)c3)ncc21 [Compound 0025] | 3.00 to 6.00
N#Cc1cc(Nc2ncc3c(n2)CCCCC3=O)cc(OC(c2ccccc2)c2ccccc2)c1 [Compound 0100] | 3.00 to 6.00
N#Cc1cc(Nc2ncc3c(n2)CCCCC3=O)cc(OC(=O)c2ccccc2)c1 [Compound 0085] | 3.00 to 6.00
N#Cc1cc(Nc2ncc3c(n2)CCCCC3=O)cc(OCC2CCOCC2)c1 [Compound 0124] | > 6.00

Structure (SMILES) | pIC50
O=C1CCCCc2nc(Nc3cc(C(F)(F)F)cc(C(F)(F)F)c3)ncc21 [Compound 0014] | 3.00 to 6.00
N#Cc1cc(Nc2ncc3c(n2)CCCC/C3=N/O)cs1 [Compound 0054] | < 3.00
N#Cc1ccc(F)c(Nc2ncc3c(n2)CCCCC3=O)c1 [Compound 0088] | 3.00 to 6.00
N#C/C=C1/CCCCc2nc(Nc3csc(C#N)c3)ncc21 [Compound 0056] | 3.00 to 6.00
N#Cc1cc(Nc2ncc3c(n2)CCCCC3=O)cc(OCc2c(F)c(F)c(F)c(F)c2F)c1 [Compound 0050] | > 6.00
N#Cc1cc(Nc2ncc3c(n2)CCCCC3=O)cc(OCC2CCCC2)c1 [Compound 0099] | 3.00 to 6.00
CC1(C)[C@H]2CCC1(C)[C@@H](Oc1cc(C#N)cc(Nc3ncc4c(n3)CCCCC4=O)c1)C2 [Compound 0093] | < 3.00
CCCCCCCCCCCCCCOc1cc(C#N)cc(Nc2ncc3c(n2)CCCCC3=O)c1 [Compound 0092] | < 3.00
COc1ccccc1COc1cc(C#N)cc(Nc2ncc3c(n2)CCCCC3=O)c1 [Compound 0122] | > 6.00
COc1ccc(COc2cc(C#N)cc(Nc3ncc4c(n3)CCCCC4=O)c2)cc1 [Compound 0048] | > 6.00
CC1(C)OB(c2cccc(Nc3ncc4c(n3)CCCCC4=O)c2)OC1(C)C [Compound 0023] | 3.00 to 6.00
CCOc1cc(C#N)cc(Nc2ncc3c(n2)CCCCC3=O)c1 [Compound 0059] | > 6.00
N#Cc1cc(Nc2ncc3c(n2)CCCCC3=O)cc(OCC2CCC2)c1 [Compound 0098] | 3.00 to 6.00
N#Cc1cc(Nc2ncc3c(n2)CCCCC3=O)cc(Oc2ccccc2)c1 [Compound 0084] | 3.00 to 6.00
C#CCC1(COc2cc(C#N)cc(Nc3ncc4c(n3)CCCCC4=O)c2)N=N1 [Compound 0095] | < 3.00
N#C/C=C1\CCCCc2nc(Nc3csc(C#N)c3)ncc21 [Compound 0055] | 3.00 to 6.00
N#Cc1cc(Nc2ncc3c(n2)CCCCC3=O)cc(OCc2ccc(Br)cc2)c1 [Compound 0073] | 3.00 to 6.00
CCCOc1cc(C#N)cc(Nc2ncc3c(n2)CCCCC3=O)c1 [Compound 0060] | > 6.00
CC(C)(C)COc1cc(C#N)cc(Nc2ncc3c(n2)CCCCC3=O)c1 [Compound 0106] | < 3.00
CCCCOc1cc(C#N)cc(Nc2ncc3c(n2)CCCCC3=O)c1 [Compound 0089] | 3.00 to 6.00

Same assay, conditions: Normalized in vitro IC50, Table 1; diaphorase-coupled biochemical assay, normalization to an intraplate control

pIC50 | Structure (SMILES)
3.00 to 6.00 | O=C1CCCc2nc(Nc3nc4ccccc4[nH]3)ncc21 [KG-0209-0]
3.00 to 6.00 | O=C1CCCc2nc(Nc3cccc(Br)c3)ncc21 [KG-0167-0A]
3.00 to 6.00 | O=C1CCCc2nc(NCc3ccccc3)ncc21 [KG-0164-0]
3.00 to 6.00 | CCOc1cccc(Nc2ncc3c(n2)CCCC3=O)c1 [KG-0239-0]
> 6.00 | O=C1CCCc2nc(Nc3cccc(O)c3)ncc21 [KG-0186-0A]
3.00 to 6.00 | Cc1ccccc1Nc1ncc2c(n1)CCCC2=O [KG-0056-0A]
< 3.00 | O=C1CCCc2nc(Nc3cc[nH]n3)ncc21 [KG-0216-0]
3.00 to 6.00 | O=C1CCCc2nc(Nc3cccc(Oc4ccccc4)c3)ncc21 [KG-0251-0]
< 3.00 | O=C1CCCc2nc(Nc3nc4ccccc4s3)ncc21 [KG-0211-0]
< 3.00 | O=C(O)c1cccc(Nc2ncc3c(n2)CCCC3=O)c1 [KG-0237-0]
> 6.00 | O=C1CCCc2nc(Nc3cccc(Cl)c3)ncc21 [KG-0065-0]
> 6.00 | CC1CCc2nc(Nc3cccc(C#N)c3)ncc2C1=O (centres unmarked) [KG-0205-0]
3.00 to 6.00 | O=C1CCCc2nc(Nc3cccc(C4(O)COC4)c3)ncc21 [KG-0242-0]
> 6.00 | O=C1CCCCc2nc(Nc3cccc(F)c3)ncc21 [KG-0339]
3.00 to 6.00 | O=C1CCCc2nc(Nc3ccc4ncsc4c3)ncc21 [KG-0224-0]
3.00 to 6.00 | Cc1ccc(Nc2ncc3c(n2)CCCC3=O)cc1C [KG-0188-0]
> 6.00 | N#Cc1cccc(Nc2ncc3c(n2)CCCC3=O)c1 [KG-0062-0]
3.00 to 6.00 | O=C1CCCc2nc(Nc3ccon3)ncc21 [KG-0215-0]
3.00 to 6.00 | Cc1cccc(Nc2ncc3c(n2)CCCC3=O)c1 [KG-0051-0]
3.00 to 6.00 | COC(=O)c1cccc(Nc2ncc3c(n2)CCCC3=O)c1 [KG-0064-0]
3.00 to 6.00 | COc1cccc(Nc2ncc3c(n2)CCCC3=O)c1 [KG-0185-0]
< 3.00 | Cc1cccc(Nc2ncc3c(n2)CCCC3=O)c1C [KG-0060-0]
3.00 to 6.00 | O=C1CCCc2nc(Nc3ccc4occc4c3)ncc21 [KG-0228-0]
3.00 to 6.00 | O=C1CCCc2nc(Nc3ccc4cc[nH]c4c3)ncc21 [KG-0166-0]
3.00 to 6.00 | O=C1CCCc2nc(Nc3ccc4nc[nH]c4c3)ncc21 [KG-0223-0]
> 6.00 | N#Cc1cccc(Nc2ncc3c(n2)CCCCC3=O)c1 [KG-0184-0A]
3.00 to 6.00 | O=C1CCCc2nc(Nc3ccccc3)ncc21 [KG-0187-0]
> 6.00 | N#Cc1cccc(Nc2ncc3c(n2)CCC(O)C3=O)c1 (centres unmarked) [KG-0315-0A]
3.00 to 6.00 | C#Cc1cccc(Nc2ncc3c(n2)CCCC3=O)c1 [KG-0183-0]

Same assay, conditions: Normalized in vitro IC50, Table 1A; diaphorase-coupled biochemical assay, normalization to an intraplate control

pIC50 | Structure (SMILES)
3.00 to 6.00 | O=C1CCCCc2nc(Nc3ccc(F)cc3)ncc21 [Compound 0001]
3.00 to 6.00 | NS(=O)(=O)c1ccc(Nc2ncc3c(n2)CCCCC3=O)cc1 [Compound 0044]
3.00 to 6.00 | N#Cc1ccc(Nc2ncc3c(n2)CCCCC3=O)cc1 [Compound 0012]
> 6.00 | O=C1CCCCc2nc(Nc3cccc(Cl)c3)ncc21 [Compound 0028]
3.00 to 6.00 | O=C1CCCCc2nc(Nc3ccc(B(O)O)cc3)ncc21 [Compound 0032]
3.00 to 6.00 | O=C1CCCCc2nc(Nc3ccc(I)cc3)ncc21 [Compound 0004]
3.00 to 6.00 | O=C1CCCCc2nc(Nc3ccc([N+](=O)[O-])cc3)ncc21 [Compound 0011]
3.00 to 6.00 | O=C1CCCCc2nc(Nc3ccc(C(F)(F)F)cc3)ncc21 [Compound 0010]
< 3.00 | CC(=O)Nc1ccc(Nc2ncc3c(n2)CCCCC3=O)cc1 [Compound 0013]

Structure (SMILES) | pIC50
N#Cc1cc(Nc2ncc3c(n2)CCCCC3=O)cs1 [Compound 0065] | > 6.00
